In patent publication US10874670B2, “Substituted fused heteroaromatic compounds as kinase inhibitors and the use thereof” (IMPACT THERAPEUTICS, INC., priority 2017, dated 2020):

Columns and labels:
[1] = tested on: human colon cancer cell SW620; assay: MTT assay, growth of SW620 cells, compounds combined with CPT-11; assay type: cell-based; settings: for IC50: Homo sapiens, SW-620, 120 h, combined with CPT-11 (205 nM medium), 5 days, MTT
Method: Inhibitory effects of N,N-dimethyl-3-(4-(1-(tetrahydro-2H-pyran-4-yl)-[1,2,4]triazolo[4,3-a]quinoxalin-8-yl)phenoxy)propan-1-amine and its Analogues Combined with CPT-11 on the Growth of Human Colon Cancer Cell SW620 were Determined by MTT Assay
(§1) SW620 cells were digested by trypsinase, centrifuged at 800 rpm for 5 minutes, the supernatant was discarded, resuspended with fresh medium (RPMI 1640 medium+10% FBS) and counted. The cells were seeded into 96-well cell culture plate with appropriate cell density and incubated overnight in a 37° C. 5% CO2 incubator. The stock solutions of the tested compound and the reference compound AZD0156 were serially diluted to 8 concentrations by DMSO at the ratios of 1:3 and 1:10, respectively, the first concentration was 10 μM or 1 μM, and the last concentration was negative control of DMSO (0 μM, the final concentration of DMSO was 1%). 5 μL of each concentration was added to 120 μL of medium (25 times diluted) and mixed by shaking. The overnight cells were taken and the culture medium was removed, 195 μL of fresh medium containing 205 nM CPT-11 was added to each well, and 5 μL of diluted medium containing the corresponding concentration of the tested sample was added respectively, and the culture plate was then placed in the 5% CO2 cell culture incubator at 37° C. for 5 days. After removing the original solution, 100 pt of fresh serum-free DMEM medium containing MTT (0.5 mg/mL) was added to each well, the culture was continued. After 4 hours, the original solution was removed, 100 μL of DMSO was added into each well, the 96-well plates were shaken away from light for 10 minutes and placed in a multi-function reader to read the absorbance at the wavelength of 552/630/690 nm. GraphPad Prism 6.0 was used to analyze the data. The inhibitory activity of compounds on cell proliferation was plotted based on cell viability and compound concentration. The IC50 value was fitted by a sigmoidal dose response curve equation Y=100/(1+10^(Log C−Log IC50)), where C was the concentration of compound.
Table 3 summarizes the inhibitory effects of compounds combined with CPT-11 on the growth of human colon cancer cell SW620 (IC50).

[2] = tested on: human breast cancer cell MDA-MB-468; assay: MTT assay, growth of MDA-MB-468 cells; assay type: cell-based; settings: for IC50: 7 days, MTT
Method: Inhibitory Effects of N,N-dimethyl-3-(4-(1-(tetrahydro-2H-pyran-4-yl)-[1,2,4]triazolo[4,3-a]quinoxalin-8-yl)phenoxy)propan-1-amine and its Analogues on the Growth of Human Breast Cancer Cell MDA-MB-468 were Determined by MTT Assay
as §1, with “MDA-MB-468 cells” for “SW620 cells”, “1:10, respectively:” for “1:10, respectively,”, “was 100” for “was 10”, “medium” for “medium containing 205 nM CPT-11”, “for 7 days (On the fourth day, the medium containing drugs was removed and fresh medium containing drugs was added for continuous cultivation).” for “for 5 days.”, “100 μL” for “100 pt”
Table 4 summarizes the inhibitory effects of compounds on the growth of human breast cancer cell MDA-MB-468 (IC50).

ATM enzyme (human) = ATM enzyme (human) (Homo sapiens, UniProt Q13315); assay: ATM kinase assay (HTRF, GST-cMyc-p53 substrate); assay type: biochemical; settings: 0.5 h, read-out: Inh (%) of ATM kinase; for inhibition at 1 µM: C 1 μm (final concentration of compound)
Method: In Vitro Inhibition of ATM by N,N-dimethyl-3-(4-(1-(tetrahydro-2H-pyran-4-yl)-[1,2,4]triazolo[4,3-a]quinoxalin-8-yl)phenoxy)propan-1-amine and its Analogues was Determined by ATM Kinase Assay
The reaction was initiated by the addition of a Mg/ATP mixture and incubation for 30 minutes at room temperature, the reaction was quenched by the addition of a stop solution containing EDTA. Finally, the detection buffer containing the d2-labeled anti-GST monoclonal antibody and the europium-labeled anti-phospho p53 (Ser15) antibody was added. The plate was then read in time resolved fluorescence mode and the homogeneous time resolved fluorescence (HTRF) signal was determined according to the equation: HTRF=10000×(Em665nm/Em620nm). Each compound sample was repeated in duplicate. The experiment negative control was all components except of the ATM enzyme and the positive control contained all components. All reactions were quenched by adding EDTA.
ATM kinase inhibition was detected by using the method described above. The curve equation for calculating IC50 value is as follows:
[formula] • wherein, C is the concentration of compound and D is the slope factor.

[3] = Homo sapiens, MDA-MB-468, 168 h

Sequence of ATM enzyme (human) (Q13315 whole entry): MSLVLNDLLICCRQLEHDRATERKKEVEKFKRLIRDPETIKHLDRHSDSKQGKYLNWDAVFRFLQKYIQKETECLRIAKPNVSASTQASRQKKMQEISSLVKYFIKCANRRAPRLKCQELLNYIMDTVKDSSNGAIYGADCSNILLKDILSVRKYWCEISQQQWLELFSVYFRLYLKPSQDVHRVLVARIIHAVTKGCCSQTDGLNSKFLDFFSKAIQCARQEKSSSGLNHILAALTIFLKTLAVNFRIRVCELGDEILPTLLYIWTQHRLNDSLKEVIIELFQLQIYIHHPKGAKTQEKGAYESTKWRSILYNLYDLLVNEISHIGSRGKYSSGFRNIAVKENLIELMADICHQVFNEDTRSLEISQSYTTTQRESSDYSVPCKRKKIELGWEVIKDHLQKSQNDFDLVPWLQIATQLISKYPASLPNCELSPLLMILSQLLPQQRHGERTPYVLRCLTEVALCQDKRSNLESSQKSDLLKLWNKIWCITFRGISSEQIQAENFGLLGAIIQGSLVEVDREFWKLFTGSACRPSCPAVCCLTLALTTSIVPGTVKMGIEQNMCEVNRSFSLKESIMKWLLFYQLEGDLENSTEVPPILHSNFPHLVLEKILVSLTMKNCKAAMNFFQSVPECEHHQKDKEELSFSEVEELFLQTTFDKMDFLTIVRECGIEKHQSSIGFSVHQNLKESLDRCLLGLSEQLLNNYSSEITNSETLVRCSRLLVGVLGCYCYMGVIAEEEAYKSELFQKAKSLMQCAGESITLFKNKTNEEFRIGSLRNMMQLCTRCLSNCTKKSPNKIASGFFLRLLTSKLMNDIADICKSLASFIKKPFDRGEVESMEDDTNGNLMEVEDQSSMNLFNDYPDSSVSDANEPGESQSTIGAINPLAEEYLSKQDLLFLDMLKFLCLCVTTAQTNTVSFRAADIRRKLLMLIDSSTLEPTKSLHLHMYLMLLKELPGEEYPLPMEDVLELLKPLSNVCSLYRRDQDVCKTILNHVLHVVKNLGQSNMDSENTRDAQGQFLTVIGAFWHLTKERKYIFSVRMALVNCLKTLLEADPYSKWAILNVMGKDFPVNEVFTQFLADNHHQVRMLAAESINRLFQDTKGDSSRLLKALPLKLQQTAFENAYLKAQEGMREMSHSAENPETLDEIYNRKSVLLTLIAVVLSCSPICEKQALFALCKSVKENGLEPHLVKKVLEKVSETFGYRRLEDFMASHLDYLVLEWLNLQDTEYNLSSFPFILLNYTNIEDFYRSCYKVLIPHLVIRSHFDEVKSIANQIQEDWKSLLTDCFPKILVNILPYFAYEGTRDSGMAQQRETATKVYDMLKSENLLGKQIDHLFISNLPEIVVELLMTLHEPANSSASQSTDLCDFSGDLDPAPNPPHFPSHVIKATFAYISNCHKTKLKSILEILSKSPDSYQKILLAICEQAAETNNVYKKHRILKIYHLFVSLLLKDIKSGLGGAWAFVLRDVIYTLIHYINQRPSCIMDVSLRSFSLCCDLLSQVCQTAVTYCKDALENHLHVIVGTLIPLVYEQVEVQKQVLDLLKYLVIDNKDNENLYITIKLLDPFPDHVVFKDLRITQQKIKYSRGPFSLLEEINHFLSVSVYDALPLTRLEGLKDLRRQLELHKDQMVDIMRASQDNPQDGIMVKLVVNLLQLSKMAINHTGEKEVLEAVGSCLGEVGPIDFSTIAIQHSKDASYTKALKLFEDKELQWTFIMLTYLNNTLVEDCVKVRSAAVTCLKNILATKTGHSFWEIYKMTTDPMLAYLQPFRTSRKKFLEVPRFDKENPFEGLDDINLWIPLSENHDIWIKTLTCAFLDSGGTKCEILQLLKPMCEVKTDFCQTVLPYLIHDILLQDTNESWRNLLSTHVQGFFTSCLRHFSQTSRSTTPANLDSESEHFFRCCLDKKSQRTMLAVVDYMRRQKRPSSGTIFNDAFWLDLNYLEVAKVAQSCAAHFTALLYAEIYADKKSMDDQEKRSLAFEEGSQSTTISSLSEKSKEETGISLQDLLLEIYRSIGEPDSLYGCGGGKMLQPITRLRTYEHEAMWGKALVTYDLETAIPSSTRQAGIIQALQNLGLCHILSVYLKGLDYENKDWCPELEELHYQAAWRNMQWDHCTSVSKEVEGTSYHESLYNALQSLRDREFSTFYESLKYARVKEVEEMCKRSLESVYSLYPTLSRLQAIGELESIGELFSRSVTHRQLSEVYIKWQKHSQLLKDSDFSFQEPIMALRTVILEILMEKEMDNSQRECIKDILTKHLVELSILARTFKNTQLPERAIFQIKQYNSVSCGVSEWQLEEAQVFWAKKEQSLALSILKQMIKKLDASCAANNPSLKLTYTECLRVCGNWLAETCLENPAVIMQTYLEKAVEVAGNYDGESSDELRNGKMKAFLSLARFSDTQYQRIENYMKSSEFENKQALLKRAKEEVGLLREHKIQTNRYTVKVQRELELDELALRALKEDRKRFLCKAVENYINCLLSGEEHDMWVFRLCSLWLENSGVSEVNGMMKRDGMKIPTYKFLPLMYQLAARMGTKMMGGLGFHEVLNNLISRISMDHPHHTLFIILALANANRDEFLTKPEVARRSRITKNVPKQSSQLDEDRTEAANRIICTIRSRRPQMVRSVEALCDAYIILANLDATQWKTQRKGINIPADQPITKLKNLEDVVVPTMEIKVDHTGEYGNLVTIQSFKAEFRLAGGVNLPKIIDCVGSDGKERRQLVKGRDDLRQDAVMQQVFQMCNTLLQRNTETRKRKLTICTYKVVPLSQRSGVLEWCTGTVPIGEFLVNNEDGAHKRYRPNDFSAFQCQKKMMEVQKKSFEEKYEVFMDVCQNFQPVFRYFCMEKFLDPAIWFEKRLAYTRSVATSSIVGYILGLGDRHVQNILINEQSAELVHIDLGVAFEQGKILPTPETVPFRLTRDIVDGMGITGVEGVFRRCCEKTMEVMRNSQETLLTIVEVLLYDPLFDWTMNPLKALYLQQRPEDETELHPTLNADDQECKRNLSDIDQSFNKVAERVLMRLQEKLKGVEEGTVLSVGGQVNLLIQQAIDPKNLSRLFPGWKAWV

Row | IC50 [1] [nM] | IC50 [2, 3] [nM] | inhibition at 1 µM (ATM enzyme (human)) [%] | Structure (SMILES) | also measured
1 | > 100000 | > 100000 | 82 | CN(C)CCC1CCN(c2ccc(-c3ccc4ncc5nnc(C6CCOCC6)n5c4c3)cc2)CC1 [Example 54, N,N-dimethyl-2-(1-(4-(1-(tetrahydro-2H-pyran-4-yl)-[1,2,4]triazolo[4,3-a]quinoxalin-8-yl)phenyl)piperidin-4-yl)ethan-1-amine] | –
2 | 65.1 | 54.1 | 100 | C[C@@H]1CN(c2nnc3cnc4ccc(-c5ccc(OCCCN(C)C)cc5)cc4n23)C[C@H](C)N1C [Example 23, N,N-dimethyl-3-(4-(1-((3S,5R)-3,4,5-trimethylpiperazin-1-yl)-[1,2,4]triazolo[4,3-a]quinoxalin-8-yl)phenoxy)propan-1-amine] | inhibitory effect on the growth of SW620 cells (in words) ([1]; MTT assay, combined with CPT-11): inhibited the growth of SW620 cell; inhibitory effect on the growth of MDA-MB-468 cells (in words) ([2]; MTT assay): inhibited the growth of MDA-MB-468 cell; inhibition at 0.001 µM (ATM enzyme (human); C 0.001 μm (final concentration of compound)): 60%; inhibition at 0.01 µM (ATM enzyme (human); C 0.01 μm (final concentration of compound)): 81%; inhibition at 0.1 µM (ATM enzyme (human); C 0.1 μm (final concentration of compound)): 99%
3 | 612 | 930 | 100 | Cc1cc(-c2ccc3ncc4nnc(C5CCOCC5)n4c3c2)ccc1N1CCC(N(C)C)CC1 [Example 46, N,N-dimethyl-1-(2-methyl-4-(1-(tetrahydro-2H-pyran-4-yl)-[1,2,4]triazolo[4,3-a]quinoxalin-8-yl)phenyl)piperidin-4-amine] | –
4 | 1010 | 937 | 97 | CNC1CCN(c2ccc(-c3ccc4ncc5nnc(CN6CCOCC6)n5c4n3)cc2)CC1 [Example 77, N-methyl-1-(4-(9-(morpholinomethyl)pyrido[3,2-e][1,2,4]triazolo[4,3-a]pyrazin-2-yl)phenyl)piperidin-4-amine] | –
5 | > 100000 | > 100000 | 64 | CN(C)CCCN(C)c1ccc(-c2ccc3ncc4nnc(C5CCOCC5)n4c3c2)cc1 [Example 11, N-(3-(dimethylamino)propyl)-N-methyl-4-(1-(tetrahydro-2H-pyran-4-yl)-[1,2,4]triazolo[4,3-a]quinoxalin-8-yl)aniline] | –
6 | 1030 | 1580 | 100 | CN(C)C1CCN(c2ccc(-c3ccc4ncc5nnc(C6CCOCC6)n5c4c3)c(Cl)c2)CC1 [Example 49, 1-(3-chloro-4-(1-(tetrahydro-2H-pyran-4-yl)-[1,2,4]triazolo[4,3-a]quinoxalin-8-yl)phenyl)-N,N-dimethylpiperidin-4-amine] | –
7 | 164 | 271 | – | C[C@@H]1CN(c2nnc3cnc4ccc(-c5ccc(OCCCN(C)C)cc5)nc4n23)C[C@H](C)N1C [Example 80, N,N-dimethyl-3-(4-(9-((3S,5R)-3,4,5-trimethylpiperazin-1-yl)pyrido[3,2-e][1,2,4]triazolo[4,3-a]pyrazin-2-yl)phenoxy)propan-1-amine] | –
8 | 189 | 200 | – | C[C@@H]1CN(c2nnc3cnc4ccc(-c5ccc(OCCCN(C)C)c(Cl)c5)nc4n23)C[C@H](C)N1C [Example 82, 3-(2-chloro-4-(9-((3S,5R)-3,4,5-trimethylpiperazin-1-yl)pyrido[3,2-e][1,2,4]triazolo[4,3-a]pyrazin-2-yl)phenoxy)-N,N-dimethylpropan-1-amine] | –
9 | 981 | > 10000 | – | CN(C)C1CCN(c2ccc(-c3ccc4ncc5nnc(N6CCC(N(C)C)CC6)n5c4n3)cc2)CC1 [Example 90, 1-(2-(4-(4-(dimethylamino)piperidin-1-yl)phenyl)pyrido[3,2-e][1,2,4]triazolo[4,3-a]pyrazin-9-yl)-N,N-dimethylpiperidin-4-amine] | –
10 | 70.5 | 246 | – | C[C@@H]1CN(c2nnc3cnc4ccc(-c5ccc(N6CCC(N(C)C)CC6)cc5)nc4n23)C[C@H](C)N1C [Example 84, N,N-dimethyl-1-(4-(9-((3S,5R)-3,4,5-trimethylpiperazin-1-yl)pyrido[3,2-e][1,2,4]triazolo[4,3-a]pyrazin-2-yl)phenyl)piperidin-4-amine] | –
11 | – | – | – | CN(C)CCCOc1ccc(-c2cc3c(cn2)ncc2nnc(C4CCOCC4)n23)cc1 [Example 69, N,N-dimethyl-3-(4-(1-(tetrahydro-2H-pyran-4-yl)pyrido[3,4-e][1,2,4]triazolo[4,3-a]pyrazin-8-yl)phenoxy)propan-1-amine] | IC50 [2]: > 10000 nM
12 | 14.4 | 6.61 | – | C[C@@H]1CN(c2nnc3cnc4ccc(-c5ccc(N6CCC(N(C)C)CC6)c(F)c5)cc4n23)C[C@H](C)N1C [Example 59, 1-(2-fluoro-4-(1-((3S,5R)-3,4,5-trimethylpiperazin-1-yl)-[1,2,4]triazolo[4,3-a]quinoxalin-8-yl)phenyl)-N,N-dimethylpiperidin-4-amine] | –
13 | 138 | 201 | – | C[C@@H]1CN(c2nnc3cnc4ccc(-c5ccc(OCCCN(C)C)c(F)c5)nc4n23)C[C@H](C)N1C [Example 81, 3-(2-fluoro-4-(9-((3S,5R)-3,4,5-trimethylpiperazin-1-yl)pyrido[3,2-e][1,2,4]triazolo[4,3-a]pyrazin-2-yl)phenoxy)-N,N-dimethylpropan-1-amine] | –
14 | 41.3 | 22.2 | – | C[C@@H]1CN(c2nnc3cnc4ccc(-c5ccc(N6CCC(N(C)C)CC6)c(F)c5)nc4n23)C[C@H](C)N1C [Example 85, 1-(2-fluoro-4-(9-((3S,5R)-3,4,5-trimethylpiperazin-1-yl)pyrido[3,2-e][1,2,4]triazolo[4,3-a]pyrazin-2-yl)phenyl)-N,N-dimethylpiperidin-4-amine] | –
15 | 148 | 73.4 | – | C[C@@H]1CN(c2nnc3cnc4ccc(-c5ccc(OCCCN(C)C)c(C(F)(F)F)c5)nc4n23)C[C@H](C)N1C [Example 83, N,N-dimethyl-3-(2-(trifluoromethyl)-4-(9-((3S,5R)-3,4,5-trimethylpiperazin-1-yl)pyrido[3,2-e][1,2,4]triazolo[4,3-a]pyrazin-2-yl)phenoxy)propan-1-amine] | –
